# Measured values from patent publication US5191079A, “Quinolinecarboxylic acid derivatives” (priority 1990, dated 1993).
# Where a name gives a salt, the structure may show the parent alone. Read-outs that look alike come from different tables or passages of the source.
# How the values were obtained:
# Format in all cases: cell-based
# [1] = test system: Staphylococcus aureus FDA 209P JC-1; test: MIC, Experiment 1; settings: FDA209P, S. aureus FDA 209P JC-1, Gram +, read-out: Min. inhib. concentr. (MIC)
# Experimental: (§1) The compounds of the present invention (B, E, G, H, M, N, O, P and Q) were each dissolved in dimethylsulfoxide to prepare a solution of 5000 μg/ml in concentration. The compounds of the present invention (I, J and K) and the known compound (Y) were each dissolved in sterilized distilled water to prepare a solution of 5000 μg/ml in concentration. Each solution was diluted with sterilized distilled water to prepare a standard solution with a concentration of each test compound: 1000 μg/ml. The test was carried out by a method as appointed by Japan Society of Chemotherapy [cf. Chemotherapy, 29, 76-79 (1981), TOKYO].
# (§2) As to Streptococcus pneumoniae and Streptococcus pyogenes, Brain heart infusion broth (manufactured by DIFCO) was used as the medium for the preculture thereof, and a heart infusion agar medium containing 5% defibrinated horse blood (manufactured by Nissui Seiyaku K. K., Japan) was used as the medium for the measurement of minimum inhibitory concentration (MIC). As to other microorganisms, a sensitivity test broth (manufactured by Nissui Seiyaku K. K.) was used as the medium for the preculture thereof, and a sensitivity test agar medium (manufactured by Nissui Seiyaku K. K.) was used as the medium for the measurement of MIC.
# Bacillus cereus IAM 1029 = test: MIC, Experiment 1; settings: IAM1029, B. cereus IAM 1029, Gram +, read-out: Min. inhib. concentr. (MIC)
# Experimental: as §1, §2
# Enterobacter cloacae 963 = test: MIC, Experiment 1; settings: E. cloacae 963, Gram -, read-out: Min. inhib. concentr. (MIC)
# Experimental: as §1, §2
# [2] = test system: Streptococcus pneumoniae IID 552; test: MIC, Experiment 1; settings: IID552, S. pneumoniae IID 552, Gram +, agar with 5% defibrinated horse blood, read-out: Min. inhib. concentr. (MIC)
# Experimental: as §1, §2
# [3] = test system: Staphylococcus aureus IID 803; test: MIC, Experiment 1; settings: IID803, S. aureus IID 803, Gram +, read-out: Min. inhib. concentr. (MIC)
# Experimental: as §1, §2
# [4] = test system: Streptococcus pyogenes Cook; test: MIC, Experiment 1; settings: S. pyogenes Cook, Gram +, agar with 5% defibrinated horse blood, read-out: Min. inhib. concentr. (MIC)
# Experimental: as §1, §2
# [5] = test system: Klebsiella pneumoniae PCI-602; test: MIC, Experiment 1; settings: PCI602, K. pneumoniae PCI-602, Gram -, read-out: Min. inhib. concentr. (MIC)
# Experimental: as §1, §2
# [6] = test system: Streptococcus pyogenes Su; test: MIC, Experiment 1; settings: S. pyogenes Su, Gram +, agar with 5% defibrinated horse blood, read-out: Min. inhib. concentr. (MIC)
# Experimental: as §1, §2
# [7] = test system: Escherichia coli NIHJ JC-2; test: MIC, Experiment 1; settings: NIHJJC2, E. coli NIHJ JC-2, Gram -, read-out: Min. inhib. concentr. (MIC)
# Experimental: as §1, §2
# [8] = test system: Acinetobacter calcoaceticus Ac 54; test: MIC, Experiment 1; settings: AC54, A. calcoaceticus Ac 54, Gram -, read-out: Min. inhib. concentr. (MIC)
# Experimental: as §1, §2
# [9] = test system: Staphylococcus aureus Terajima (IID 670); test: MIC, Experiment 1; settings: IID670, S. aureus Terajima (IID 670), Gram +, read-out: Min. inhib. concentr. (MIC)
# Experimental: as §1, §2
# [10] = test system: Streptococcus pyogenes Sv; test: MIC, Experiment 1; settings: S. pyogenes Sv, Gram +, agar with 5% defibrinated horse blood, read-out: Min. inhib. concentr. (MIC)
# Experimental: as §1, §2
# [11] = test system: Staphylococcus aureus FDA 243; test: MIC, Experiment 1; settings: FDA243, S. aureus FDA 243, Gram +, read-out: Min. inhib. concentr. (MIC)
# Experimental: as §1, §2
# [12] = test system: Staphylococcus aureus ATCC 9144; test: MIC, Experiment 1; settings: ATCC9144, S. aureus ATCC 9144, Gram +, read-out: Min. inhib. concentr. (MIC)
# Experimental: as §1, §2
# [13] = test system: clinically isolated Enterococcus faecium; test: In vitro antibacterial activity against clinical isolates, Experiment 2
# Experimental: (§3) The above solutions were then diluted with sterilized distilled water to prepare a standard solution with a concentration of the test compound: 1000 μg/ml each.
# (§4) For the preculture of each microorganism, there was used as the medium a sensitivity test broth (manufactured by Nissui Seiyaku K. K., Japan), and for the measurement of MIC, there was used a sensitivity test agar medium (manufactured by Nissui Seiyaku K. K.).
# (§5) The clinically isolates used above were isolated from Nov. 1988 to Jun. 1989 and were obtained from Research Section, Tokyo Clinical Research Center.
# [14] = test system: clinically isolated Enterococcus faecalis; test: as above
# Experimental: as §3, §4, §5
# [15] = test system: clinically isolated Staphylococcus aureus; test: as above; settings: for MIC50: 50% of strains, read-out: MIC50
# Experimental: as §3, §4, §5
# [16] = test system: clinically isolated Staphylococcus epidermidis; test: as above; settings: for MIC50 / MIC90 / MIC: Staphylococcus epidermidis
# Experimental: as §3, §4, §5
# [17] = test system: Staphylococcus epidermidis IAM 1296; test: MIC, Experiment 1; settings: IAM1296, S. epidermidis IAM 1296, Gram +, read-out: Min. inhib. concentr. (MIC)
# Experimental: The compounds of the present invention ([…] and Q) were each dissolved in dimethylsulfoxide to prepare a solution of 5000 μg/ml in concentration. The compounds of the present invention (I, J and K) and the known compound (Y) were each dissolved in sterilized distilled water to prepare a solution of 5000 μg/ml in concentration. […] The test was carried out by a method as appointed by Japan Society of Chemotherapy [cf. Chemotherapy, 29, 76-79 (1981), TOKYO]. As to Streptococcus pneumoniae and Streptococcus pyogenes, Brain heart infusion broth (manufactured by DIFCO) was used as the medium for the preculture thereof, and a heart infusion agar medium containing 5% defibrinated horse blood (manufactured by Nissui Seiyaku K. K., Japan) was used as the medium for the measurement of minimum inhibitory concentration (MIC). As to other microorganisms, a sensitivity test broth (manufactured by Nissui Seiyaku K. K.) was used as the medium for the preculture thereof, and a sensitivity test agar medium (manufactured by Nissui Seiyaku K. K.) was used as the medium for the measurement of MIC.
# [18] = 25 clinical strains E. faecium, 90% of strains, read-out: MIC90
# [19] = 25 clinical strains E. faecalis
# [20] = 25 clinical strains S. aureus incl. 16 methicillin resistant
# [21] = 25 clinical strains S. aureus incl. 16 methicillin resistant, 90% of strains, read-out: MIC90
# [22] = 25 clinical strains S. epidermidis
# [23] = 25 clinical strains S. epidermidis, 50% of strains, read-out: MIC50
# [24] = 25 clinical strains S. epidermidis, 90% of strains, read-out: MIC90
SMILES,MIC [1],MIC (Bacillus cereus IAM 1029),MIC (Enterobacter cloacae 963),MIC [2],MIC [3],MIC [4],MIC [5],MIC [6],MIC [7],MIC [8],MIC [9],MIC [10],MIC [11],MIC [12],MIC50 [13],MIC ([13]; 25 clinical strains E. faecium),"MIC [14, 19]","MIC [15, 20]","MIC50 [15, 20]",MIC [17],other results
"CN1CCN(c2c(F)cc3c(=O)c(C(=O)O)c4scc5n4c3c2OC5)CC1 [Compound (Y), 9,1-Epoxymethano-7-fluoro-8-(4-methyl-1-piperazinyl)-5-oxo-5H-thiazolo[3,2-a]quinoline-4-carboxylic acid hydrochloride, reference compound]",0.2 µg/mL,0.39 µg/mL,0.1 µg/mL,0.1 µg/mL,0.2 µg/mL,0.1 µg/mL,0.025 µg/mL,0.1 µg/mL,0.1 µg/mL,0.2 µg/mL,0.1 µg/mL,0.2 µg/mL,0.05 µg/mL,0.05 µg/mL,3.13 µg/mL,0.39 to 12.5 µg/mL,0.2 to 6.25 µg/mL,0.05 to 12.5 µg/mL,0.2 µg/mL,0.39 µg/mL,"MIC90 [13, 18]: 6.52 µg/mL; MIC50 [14]: 0.39 µg/mL; MIC90 [14]: 6.25 µg/mL; MIC90 [15, 21]: 12.5 µg/mL; MICrange [16, 22]: 0.025 to 25 µg/mL; MIC50 [16, 23]: 0.1 µg/mL; MIC90 [16, 24]: 12.5 µg/mL"
"CN1Cc2csc3c(C(=O)O)c(=O)c4cc(F)c(N5CCO[C@@H](CO)C5)c1c4n23 [Compound (N), 9,1-(Methylimino)methano-7-fluoro-8-[(2R)-2-hydroxymethylmorpholino]-5-oxo-5H-thiazolo[3,2-a]quinoline-4-caboxylic acid]",0.013 µg/mL,0.025 µg/mL,0.39 µg/mL,0.025 µg/mL,0.013 µg/mL,0.025 µg/mL,≤ 0.006 µg/mL,0.025 µg/mL,0.2 µg/mL,≤ 0.006 µg/mL,0.025 µg/mL,0.05 µg/mL,≤ 0.006 µg/mL,≤ 0.006 µg/mL,1.56 µg/mL,0.1 to 25 µg/mL,0.05 to 3.13 µg/mL,0.006 to 0.78 µg/mL,0.013 µg/mL,0.05 µg/mL,"MIC90 [13]: 6.25 µg/mL; MIC50 ([14]; 25 clinical strains E. faecalis, 50% of strains, read-out: MIC50): 0.2 µg/mL; MIC90 ([14]; 25 clinical strains E. faecalis, 90% of strains, read-out: MIC90): 3.13 µg/mL; MIC90 [15]: 0.78 µg/mL; MIC50 [16]: 0.025 µg/mL; MIC [16, 22]: 0.006 to 0.78 µg/mL; MIC90 [16, 24]: 0.39 µg/mL"
"CN1Cc2csc3c(C(=O)O)c(=O)c4cc(F)c(N5CCN(C)C(CF)C5)c1c4n23 (stereo not drawn) [Compound (K), 9,1-(methylimino)methano-7-fluoro-8-(3-fluoromethyl-4-methyl-1-piperazinyl)-5-oxo-5H-thiazolo[3,2-a]quinoline-4-carboxylic acid hydrochloride]",0.05 µg/mL,0.05 µg/mL,0.2 µg/mL,0.05 µg/mL,0.05 µg/mL,0.1 µg/mL,0.013 µg/mL,0.05 µg/mL,0.2 µg/mL,0.025 µg/mL,0.05 µg/mL,0.1 µg/mL,0.05 µg/mL,0.05 µg/mL,1.56 µg/mL,0.2 to 12.5 µg/mL,0.2 to 6.25 µg/mL,0.025 to 1.56 µg/mL,0.05 µg/mL,0.1 µg/mL,"MIC90 [13, 18]: 12.5 µg/mL; MIC50 [14]: 0.39 µg/mL; MIC90 [14]: 6.25 µg/mL; MIC90 [15, 21]: 1.56 µg/mL; MIC90 [16]: 0.78 µg/mL; MIC [16, 22]: 0.05 to 1.56 µg/mL; MIC50 [16, 23]: 0.05 µg/mL"
